Experimental data reported in patent US9885060B2, “Alkene production” (Evonik Degussa GmbH, priority 2015, dated 2018).

Assays:
Type in all cases: biochemical
[1] = tested on: OleT; experiment: Decarboxylation of FAs C22 to C4 employing the FDH-CamAB-OleT redox-cascade; conditions: for Conversion / α-Olefin / Selectivity n-Alkanone / Selectivity α-OH / Selectivity α-Olefin / Selectivity β-OH: 10 mM substrate
Procedure: (§1) Enzymatic reactions (1 mL scale) were quenched by addition of 100 μL 5 N Extraction of substrate and products was performed with 500 μL EtOAc containing 0.1% 1-decanol as internal standard. The organic phase was dried over anhydrous Na2SO4. Derivatization of carboxylic acids (fatty acids and hydroxy acids) to the corresponding methyl esters was achieved by mixing the organic phase with MeOH (2.5:1.5 v/v) followed by supplementation of 5 to 15 μL of 2 M TMSCHN2 (trimethylsilyldiazomethane in diethyl ether). The mixture was incubated for 30 min, 25° C. and 750 rpm before injection into GC-FID or GC-MS, Extraction and derivatization of products and substrates from conversion of short chain FAs ([…]) was performed using the same protocol but all steps were performed on ice to prevent undesired loss of volatile products.
(§2) Products from FA substrates with chain lengths ranging from C22 to C10 were separated on a HP5 column (Programm) and detected by GC-FID or GC-MS. Extracted products from conversion of nonanoic acid (I-octene as product) were separated on a DB1702 column (Programm) and detected by GC-FID. Authentic standards of substrates and terminal olefins were treated as described above and were used as references for identification and preparation of calibration curves. Detection of volatile short chain terminal olefins (1-butene/1-propene [ongoing] to 1-heptene) was accomplished by manual injection from vial headspaces into GC-MS, in order to prevent loss of products, the vials containing the reaction mixtures were sealed with a PTFE septum. After conversion the closed vial was heated for 10 min at 80° C., together with a 10 ml syringe (TYPE). From the headspace 2 to 9 μl volumes were injected splitless into a GC-MS chromatograph and analytes were separated on a HP5 column (Programm). Calibration curves for 1-pentene, 1-hexene and 1-heptene were prepared in the same way at 4° C. and using 5% DMF as cosolvent.
The substrate scope of OleT was further investigated by varying the FA chain length from C3 to C22. […] For the first time, short EAs could be decarboxylated to the corresponding olefins, covering the whole spectrum from C11 down to C4. […] Due to the high volatility of short chain olefins, product work up was done at 4° C. […] (2.53 mM product from 5 mM lauric acid). Head-space analysis by GC-MS from reactions with short chain FAs (C8-C5) confirmed the formation of the respective α-olefins, allowing the first biotechnological access to 1-heptene, 1-hexene and 1-pentene and 1-butene with OleT.
Conversion of heptanoic acid was carried out as described in Example 4 using the OleTCamAB-FDH reaction cascade.
Calibration curves for 1-hexene were prepared accordingly ranging from 0.05 to 2 mM. Due to a strong overlap of […] with the peak areas of CO2 and EtOH (FIG. 1, peaks a, b and c) the ion extraction mode of the GC-MS to generate reliable calibration curves was used. Neither CO2 nor EtOH interfered with the product peak area. This can be seen comparing FIGS. 1 and 5 which allow reliable and linear quantification of 1-hexene (FIG. 6) using manual headspace GC-MS injection.
Manual headspace injection into GC-MS was successfully performed for all substrates with chain lengths of C11 to C6. Conversion of 10 mM heptanoic acid allowed reliable formation of up to 1.3 mM 1-hexene without further optimization of the reaction conditions.

[2] = tested on: OleT; experiment: Trapping, derivatization (Br2/DCM impinger) and quantification of 1-butene and 1-propene formed by the OleT-CamAB-FDH cascade; conditions: 10 mM substrate, 10 ml scale
Procedure: FIG. 7 is a picture of a novel reaction set up for trapping volatile α-olefins, such as 1-propene and 1-butene. A small impinger containing 10 ml of a 20 mM Br2/DCM solution was placed on top of the flask serving as sole gas outlet and trap for α-olefin products. The functionality of this system was successfully confirmed using an analytical standard of 1-heptene. The concept for derivatization and trapping of volatile α-olefins is shown in Scheme 2.
Production of 1-propene and 1-butene was initially confirmed using manual headspace GC-MS injection. Since the quantification of 1-propene and 1-butene using analytical standards was not feasible, a novel trapping/derivatization system for highly volatile short-chain α-olefins derived from biocatalytic reactions was designed. […]
The obtained products were analyzed by GC-FID and GC-MS using analytical standards of 1,2-dibromobutane and 1,2-dibromopropane. Due to the (visible) gas exhaust (CO2 production by OleT and FDH) and strong evaporation of DCM (˜70% volume lost after 24 h), the residual volume in the impinger was determined to allow reliable product quantification. Calibration curves for 1,2-dibromobutane and 1,2-dibromopropane were prepared to allow quantification of produced 1-propene and 1-butene (not shown). […]

[3] = tested on: OleT; experiment: Decarboxylation of stearic and palmitic acid by OleT using O2/CamAB or H2O2 as oxidant; conditions: 1 μM OleT, 1 mM substrate
[4] = tested on: OleT; experiment: Decarboxylation of stearic acid by OleT with CamAB redox cascade and NAD(P)H regeneration system (GDH, PDH, FDH)
Procedure: as §1, §2
After 24 h reaction time, product concentrations of 1.16 mM (0.27 g L-1) 1-heptadecene and 1 mM (0.21 g L-1) 1-pentadecene were obtained but could not be further enhanced. […] Compared to a previously published whole cell reaction system, this FDH-driven system allows 6 times higher product titer and a 21 times higher volumetric productivity with 42.5 mg L-1 h-1 of α-olefin after 8 h reaction time vs: 98 mg L-1 in 48 h) (Table 2).

[5] = 200 μM NADPH + O2, CamAB, 60 min
[6] = 1 mM H2O2, 150 min, no CamAB, strong precipitation observed
[7] = 1 mM NADPH + O2, CamAB, 150 min
[8] = FDH-based regeneration, 5 mM stearic acid
[9] = Formate [8 h], FDH-CamAB, purified OleT 3 μM, 5 mM stearic acid
[10] = Formate, FDH-(Fdr/Fdx) without CamAB, cell free lysate OleT 3 μM, 5 mM stearic acid, 24 h
[11] = Formate, FDH-CamAB, purified OleT 1.5 μM, 5 mM stearic acid, 24 h
[12] = Formate, FDH-CamAB-Fdr/Fdx, cell free lysate OleT 3 μM, 5 mM stearic acid, 24 h
[13] = Glucose, GDH-CamAB, purified OleT 1.5 μM, 5 mM stearic acid, 24 h
[14] = PDH-based regeneration, 5 mM stearic acid
[15] = Phosphite, PDH-CamAB, purified OleT 1.5 μM, 5 mM stearic acid, 24 h

## CCCCCC(=O)O [C6, caproic acid/hexanoic acid]
[1]; 4 °C, 72 h
  Conversion: 7.7%
  α-Olefin: 772 µM
[1]; 25 °C, 24 h
  Conversion: 12%
  α-Olefin: 1170 µM

## CCCC(=O)O [C4, butyric acid]
[1]; 25 °C, 24 h
  Conversion: 5%
  α-Olefin: 504 µM
[2]
  α-olefin formed (trapped as 1,2-dibromoalkane): 504 µM

## CCCCCCCCCCCCCCCCCC(=O)O [Stearic Acid, stearic acid]
[3]; 200 μM H2O2, 60 min, no CamAB
  Coupling: 85%
  TOF: 170 h⁻¹
  TON: 170
  α-Olefin: 170 ± 7 µM
[3]; 200 μM NADH + O2, CamAB, 6 min
  Coupling: 7%
  TOF: 150 h⁻¹
  TON: 15
  α-Olefin: 15 ± 1 µM
[3]; [5]
  Coupling: 25%
  TOF: 53 h⁻¹
  TON: 53
  α-Olefin: 53 ± 5 µM
[3]; [6]
  Coupling: 5%
  TOF: 21 h⁻¹
  TON: 53
  α-Olefin: 53 ± 15 µM
[3]; 1 mM NADH + O2, CamAB, 60 min
  Coupling: 2%
  TOF: 20 h⁻¹
  TON: 20
  α-Olefin: 20 ± 2 µM
[3]; [7]
  Coupling: 11%
  TOF: 47 h⁻¹
  TON: 118
  α-Olefin: 118 ± 23 µM
[4]; [8]
  Conversion: 62%
  TIN: 2096
[4]; FDH-driven system, after 8 h reaction time
  volumetric productivity of α-olefin: 42.5 mg/L/h
[4]; [9]
  Product: 0.34 g/L
  TTN: 473
  α-Olefin: 1419 µM
[4]; [10]
  Product: 0.1 g/L
  TTN: 151
  α-Olefin: 452 ± 52 µM
[4]; [11]
  Product: 0.75 g/L
  TTN: 2096
  α-Olefin: 3144 ± 121 µM
[4]; [12]
  Product: 0.37 g/L
  TTN: 522
  α-Olefin: 1565 ± 20 µM
[4]; GDH-based system, 1 mM stearic acid
  Conversion: 36%
[4]; GDH-based system, 10 mM stearic acid
  TIN: up to 389
[4]; [13]
  Product: 0.24 g/L
  TTN: 680
  α-Olefin: 1020 ± 63 µM
[4]; [14]
  Conversion: 52%
  TIN: 1739
[4]; [15]
  Product: 0.62 g/L
  TTN: 1739
  α-Olefin: 2609 ± 256 µM
[1]; 4 °C, 72 h
  Conversion: 25%
  Selectivity n-Alkanone: 5 % GC-area
  Selectivity α-OH: <1 % GC-area
  Selectivity α-Olefin: 93 % GC-area
  Selectivity β-OH: 5 % GC-area
  α-Olefin: 2451 µM
[1]; 25 °C, 24 h
  Conversion: 39%
  Selectivity n-Alkanone: 6 % GC-area
  Selectivity α-OH: 2 % GC-area
  Selectivity α-Olefin: 86 % GC-area
  Selectivity β-OH: 8 % GC-area
  α-Olefin: 3886 µM
[1]; RT, 5 mM stearic acid
  maximum product concentration: 2.45 mM

## CCCCCCCC(=O)O [C8, caprylic acid/octanoic acid]
[1]; 4 °C, 72 h
  Conversion: 1.4%
  α-Olefin: 141 µM
[1]; 25 °C, 24 h
  Conversion: 3.6%
  α-Olefin: 364 µM

## CCCCC(=O)O [C5, valeric acid]
[1]; 25 °C, 24 h
  Conversion: 8.3%
  α-Olefin: 834 µM
[2]
  α-olefin formed (trapped as 1,2-dibromoalkane): 834 µM

## CCCCCCCCCCCCCCCC(=O)O [Palmitic Acid, palmitic acid]
[3]; 200 μM H2O2, 60 min, no CamAB
  Coupling: 33%
  TOF: 65 h⁻¹
  TON: 65
  α-Olefin: 65 µM
[3]; 200 μM NADH + O2, CamAB, 6 min
  Coupling: 3%
  TOF: 60 h⁻¹
  TON: 60
  α-Olefin: 6 µM
[3]; [5]
  Coupling: 10%
  TOF: 21 h⁻¹
  TON: 21
  α-Olefin: 21 µM
[3]; [6]
  Coupling: 7%
  TOF: 29 h⁻¹
  TON: 29
  α-Olefin: 73 µM
[3]; 1 mM NADH + O2, CamAB, 60 min
  Coupling: 1%
  TOF: 9 h⁻¹
  TON: 9
  α-Olefin: 9 µM
[3]; [7]
  Coupling: 3%
  TOF: 13 h⁻¹
  TON: 33
  α-Olefin: 33 µM
[1]; 4 °C, 72 h
  Conversion: 21%
  Selectivity n-Alkanone: 6 % GC-area
  Selectivity α-OH: <1 % GC-area
  Selectivity α-Olefin: 80 % GC-area
  Selectivity β-OH: 14 % GC-area
  α-Olefin: 2059 µM
[1]; 25 °C, 24 h
  Conversion: 11%
  Selectivity n-Alkanone: 8 % GC-area
  Selectivity α-OH: 3 % GC-area
  Selectivity α-Olefin: 72 % GC-area
  Selectivity β-OH: 23 % GC-area
  α-Olefin: 1111 µM

## CCCCCCCCCC(=O)O [C10, capric acid/decanoic acid]
[1]; 4 °C, 72 h
  Conversion: 0.7%
  Selectivity α-Olefin: >99 % GC-area
  α-Olefin: 71 µM
[1]; 25 °C, 24 h
  Conversion: 0.4%
  Selectivity α-Olefin: >99 % GC-area
  Selectivity β-OH: Traces
  α-Olefin: 44 µM

## CCCCCCCCC(=O)O [C9, nonanoic acid]
[1]; 4 °C, 72 h
  Conversion: 13%
  α-Olefin: 1347 µM
[1]; 25 °C, 24 h
  Conversion: 18%
  Selectivity α-OH: 17 % GC-area
  Selectivity α-Olefin: 53 % GC-area
  Selectivity β-OH: 30 % GC-area
  α-Olefin: 1829 µM

## CCCCCCCCCCCC(=O)O [C12, lauric acid]
[1]; 4° C., 5 mM lauric acid
  product concentration: 2.53 mM
[1]; 4 °C, 72 h
  Conversion: 33%
  Selectivity α-Olefin: 73 % GC-area
  Selectivity β-OH: 30 % GC-area
  α-Olefin: 3260 µM
[1]; 25 °C, 24 h
  Conversion: 3%
  α-Olefin: 273 µM

## CCCCCCC(=O)O [C7, heptanoic acid]
[1]; 10 mM heptanoic acid, manual headspace GC-MS
  formation of 1-hexene: up to 1.3 mM
[1]; 4 °C, 72 h
  Conversion: 9.5%
  α-Olefin: 946 µM
[1]; 25 °C, 24 h
  Conversion: 13%
  α-Olefin: 1298 µM
